ChEMBL document CHEMBL1926546, “New N-methylpiperazinyl derivatives of bicyclic antiprotozoal compounds” (Eur J Med Chem, 2012)
Calls of active or inactive are those of the source. The calls are words filed in the database; no cut-off is given here.

Tested on: Trypanosoma brucei rhodesiense
Assay: Antitrypanosomal activity against Trypanosoma brucei rhodesiense STIB900 bloodstream forms after 72 hrs by serial dilution Alamar blue assay
Assay type: functional, organism-based
Conditions: STIB900, 72 h

Compound | IC50 [µM]
c1ccc(C2CC3(N4CCCCC4)CCN(CCCN4CCCCC4)C2C(c2ccccc2)C3)cc1 (stereo not drawn) | 18.4
CN1CCN(C23CCNC(C(c4ccccc4)C2)C(c2ccccc2)C3)CC1 (racemic) | 0.38
CN1CCN(CCC(=O)N2CCC3(N4CCN(C)CC4)CC(c4ccccc4)C2C(c2ccccc2)C3)CC1 (racemic) | 3.62
CN1CCN(CCN2CCC3(N(C)C)CC(c4ccccc4)C2C(c2ccccc2)C3)CC1 (racemic) | 13.5
CN1CCN(CCN2CCC3(N4CCCC4)CC(c4ccccc4)C2C(c2ccccc2)C3)CC1 (racemic) | 6.35
CN1CCN(CCN2CCC3(N4CCCCC4)CC(c4ccccc4)C2C(c2ccccc2)C3)CC1 (racemic) | 43.7
CN1CCN(CCCN2CCC3(N(C)C)CC(c4ccccc4)C2C(c2ccccc2)C3)CC1 (racemic) | 11.5
CN1CCN(CCCN2CCC3(N4CCCC4)CC(c4ccccc4)C2C(c2ccccc2)C3)CC1 (racemic) | 6.99
CN1CCN(CCCN2CCC3(N4CCCCC4)CC(c4ccccc4)C2C(c2ccccc2)C3)CC1 (racemic) | 17.6
CN1CCN(CCCN2CCC3(N4CCN(C)CC4)CC(c4ccccc4)C2C(c2ccccc2)C3)CC1 (racemic) | 6.67
CN1CCN(CC(=O)NC2CC3(N4CCN(C)CC4)CC(c4ccccc4)C2C(c2ccccc2)C3)CC1 (racemic) | 2.06
CN1CCN(CCC(=O)NC2CC3(N4CCN(C)CC4)CC(c4ccccc4)C2C(c2ccccc2)C3)CC1 (racemic) | 3.3
CN1CCN(CCC(=O)OC2CC3(N(C)C)CC(c4ccccc4)C2C(c2ccccc2)C3)CC1 (racemic) | 0.21
CN1CCN(CCC(=O)OC2CC3(N4CCCC4)CC(c4ccccc4)C2C(c2ccccc2)C3)CC1 (racemic) | 0.45
CN1CCN(CCC(=O)OC2CC3(N4CCCCC4)CC(c4ccccc4)C2C(c2ccccc2)C3)CC1 (racemic) | 0.087
CN1CCN(CCCC(=O)OC2CC3(N(C)C)CC(c4ccccc4)C2C(c2ccccc2)C3)CC1 (racemic) | 0.08
CN1CCN(CCCC(=O)OC2CC3(N4CCCC4)CC(c4ccccc4)C2C(c2ccccc2)C3)CC1 (racemic) | 0.15
CN1CCN(CCCC(=O)OC2CC3(N4CCCCC4)CC(c4ccccc4)C2C(c2ccccc2)C3)CC1 (racemic) | 0.16
Nc1nc(N)nc(Nc2ccc([As]3SCC(CO)S3)cc2)n1 (stereo not drawn) [MELARSOPROL] | 0.009

Tested on: L6
Assay: Cytotoxicity against rat L6 cells
Assay type: cell-based
Conditions: not given

Compound | IC50 [µM]
CN1CCN(C23CCNC(C(c4ccccc4)C2)C(c2ccccc2)C3)CC1 (racemic) | 96.9
CN1CCN(CCC(=O)N2CCC3(N4CCN(C)CC4)CC(c4ccccc4)C2C(c2ccccc2)C3)CC1 (racemic) | 161
CN1CCN(CCN2CCC3(N(C)C)CC(c4ccccc4)C2C(c2ccccc2)C3)CC1 (racemic) | 70.3
CN1CCN(CCN2CCC3(N4CCCC4)CC(c4ccccc4)C2C(c2ccccc2)C3)CC1 (racemic) | 50.3
CN1CCN(CCN2CCC3(N4CCCCC4)CC(c4ccccc4)C2C(c2ccccc2)C3)CC1 (racemic) | 127
CN1CCN(CCCN2CCC3(N(C)C)CC(c4ccccc4)C2C(c2ccccc2)C3)CC1 (racemic) | 54.5
CN1CCN(CCCN2CCC3(N4CCCC4)CC(c4ccccc4)C2C(c2ccccc2)C3)CC1 (racemic) | 27.4
CN1CCN(CCCN2CCC3(N4CCCCC4)CC(c4ccccc4)C2C(c2ccccc2)C3)CC1 (racemic) | 62.5
CN1CCN(CCCN2CCC3(N4CCN(C)CC4)CC(c4ccccc4)C2C(c2ccccc2)C3)CC1 (racemic) | 47.8
CN1CCN(CC(=O)NC2CC3(N4CCN(C)CC4)CC(c4ccccc4)C2C(c2ccccc2)C3)CC1 (racemic) | 42.1
CN1CCN(CCC(=O)NC2CC3(N4CCN(C)CC4)CC(c4ccccc4)C2C(c2ccccc2)C3)CC1 (racemic) | 67.9
CN1CCN(CCC(=O)OC2CC3(N(C)C)CC(c4ccccc4)C2C(c2ccccc2)C3)CC1 (racemic) | 31.1
CN1CCN(CCC(=O)OC2CC3(N4CCCC4)CC(c4ccccc4)C2C(c2ccccc2)C3)CC1 (racemic) | 21.3
CN1CCN(CCC(=O)OC2CC3(N4CCCCC4)CC(c4ccccc4)C2C(c2ccccc2)C3)CC1 (racemic) | 23.5
CN1CCN(CCCC(=O)OC2CC3(N(C)C)CC(c4ccccc4)C2C(c2ccccc2)C3)CC1 (racemic) | 19.9
CN1CCN(CCCC(=O)OC2CC3(N4CCCC4)CC(c4ccccc4)C2C(c2ccccc2)C3)CC1 (racemic) | 10.2
CN1CCN(CCCC(=O)OC2CC3(N4CCCCC4)CC(c4ccccc4)C2C(c2ccccc2)C3)CC1 (racemic) | 22.3

Tested on: not listed separately
Assay: Selectivity index, ratio of IC50 for rat L6 cells to IC50 for Trypanosoma brucei rhodesiense STIB900
Assay type: toxicity, cell-based
Conditions: L6 cells (versus Trypanosoma brucei rhodesiense STIB900), read-out: Ratio IC50

Compound | selectivity ratio
c1ccc(C2CC3(N4CCCCC4)CCN(CCCN4CCCCC4)C2C(c2ccccc2)C3)cc1 (stereo not drawn) | 7.5
CCN(CC)CCC(=O)OC1CC2(N(C)C)CC(c3ccccc3)C1C(c1ccccc1)C2 (stereo not drawn) | 215
CN1CCN(C23CCNC(C(c4ccccc4)C2)C(c2ccccc2)C3)CC1 (racemic) | 255
CN1CCN(CCC(=O)N2CCC3(N4CCN(C)CC4)CC(c4ccccc4)C2C(c2ccccc2)C3)CC1 (racemic) | 44.5
CN1CCN(CCN2CCC3(N(C)C)CC(c4ccccc4)C2C(c2ccccc2)C3)CC1 (racemic) | 5.19
CN1CCN(CCN2CCC3(N4CCCC4)CC(c4ccccc4)C2C(c2ccccc2)C3)CC1 (racemic) | 7.93
CN1CCN(CCN2CCC3(N4CCCCC4)CC(c4ccccc4)C2C(c2ccccc2)C3)CC1 (racemic) | 2.91
CN1CCN(CCCN2CCC3(N(C)C)CC(c4ccccc4)C2C(c2ccccc2)C3)CC1 (racemic) | 4.74
CN1CCN(CCCN2CCC3(N4CCCC4)CC(c4ccccc4)C2C(c2ccccc2)C3)CC1 (racemic) | 3.93
CN1CCN(CCCN2CCC3(N4CCCCC4)CC(c4ccccc4)C2C(c2ccccc2)C3)CC1 (racemic) | 3.55
CN1CCN(CCCN2CCC3(N4CCN(C)CC4)CC(c4ccccc4)C2C(c2ccccc2)C3)CC1 (racemic) | 7.16
CN1CCN(CC(=O)NC2CC3(N4CCN(C)CC4)CC(c4ccccc4)C2C(c2ccccc2)C3)CC1 (racemic) | 20.4
CN1CCN(CCC(=O)NC2CC3(N4CCN(C)CC4)CC(c4ccccc4)C2C(c2ccccc2)C3)CC1 (racemic) | 20.6
CN1CCN(CCC(=O)OC2CC3(N(C)C)CC(c4ccccc4)C2C(c2ccccc2)C3)CC1 (racemic) | 148
CN1CCN(CCC(=O)OC2CC3(N4CCCC4)CC(c4ccccc4)C2C(c2ccccc2)C3)CC1 (racemic) | 47.4
CN1CCN(CCC(=O)OC2CC3(N4CCCCC4)CC(c4ccccc4)C2C(c2ccccc2)C3)CC1 (racemic) | 271
CN1CCN(CCCC(=O)OC2CC3(N(C)C)CC(c4ccccc4)C2C(c2ccccc2)C3)CC1 (racemic) | 248
CN1CCN(CCCC(=O)OC2CC3(N4CCCC4)CC(c4ccccc4)C2C(c2ccccc2)C3)CC1 (racemic) | 67.7
CN1CCN(CCCC(=O)OC2CC3(N4CCCCC4)CC(c4ccccc4)C2C(c2ccccc2)C3)CC1 (racemic) | 139
Nc1nc(N)nc(Nc2ccc([As]3SCC(CO)S3)cc2)n1 (stereo not drawn) [MELARSOPROL] | 1940

Tested on: Plasmodium falciparum
Assay: Antiplasmodial activity against chloroquine and pyrimethamine-resistant Plasmodium falciparum K1 assessed as [3H]hypoxanthine incorporation after 48 hrs by liquid scintillation counter
Assay type: functional, organism-based
Conditions: not given

Compound | IC50 [µM]
CN1CCN(C23CCNC(C(c4ccccc4)C2)C(c2ccccc2)C3)CC1 (racemic) | 1.5
CN1CCN(CCC(=O)N2CCC3(N4CCN(C)CC4)CC(c4ccccc4)C2C(c2ccccc2)C3)CC1 (racemic) | 1.95
CN1CCN(CCN2CCC3(N(C)C)CC(c4ccccc4)C2C(c2ccccc2)C3)CC1 (racemic) | 0.52
CN1CCN(CCN2CCC3(N4CCCC4)CC(c4ccccc4)C2C(c2ccccc2)C3)CC1 (racemic) | 0.023
CN1CCN(CCN2CCC3(N4CCCCC4)CC(c4ccccc4)C2C(c2ccccc2)C3)CC1 (racemic) | 0.3
CN1CCN(CCCN2CCC3(N(C)C)CC(c4ccccc4)C2C(c2ccccc2)C3)CC1 (racemic) | 0.51
CN1CCN(CCCN2CCC3(N4CCCC4)CC(c4ccccc4)C2C(c2ccccc2)C3)CC1 (racemic) | 0.27
CN1CCN(CCCN2CCC3(N4CCCCC4)CC(c4ccccc4)C2C(c2ccccc2)C3)CC1 (racemic) | 0.11
CN1CCN(CCCN2CCC3(N4CCN(C)CC4)CC(c4ccccc4)C2C(c2ccccc2)C3)CC1 (racemic) | 0.25
CN1CCN(CC(=O)NC2CC3(N4CCN(C)CC4)CC(c4ccccc4)C2C(c2ccccc2)C3)CC1 (racemic) | 0.62
CN1CCN(CCC(=O)NC2CC3(N4CCN(C)CC4)CC(c4ccccc4)C2C(c2ccccc2)C3)CC1 (racemic) | 0.55
CN1CCN(CCC(=O)OC2CC3(N(C)C)CC(c4ccccc4)C2C(c2ccccc2)C3)CC1 (racemic) | 0.46
CN1CCN(CCC(=O)OC2CC3(N4CCCC4)CC(c4ccccc4)C2C(c2ccccc2)C3)CC1 (racemic) | 0.26
CN1CCN(CCC(=O)OC2CC3(N4CCCCC4)CC(c4ccccc4)C2C(c2ccccc2)C3)CC1 (racemic) | 0.06
CN1CCN(CCCC(=O)OC2CC3(N(C)C)CC(c4ccccc4)C2C(c2ccccc2)C3)CC1 (racemic) | 0.24
CN1CCN(CCCC(=O)OC2CC3(N4CCCC4)CC(c4ccccc4)C2C(c2ccccc2)C3)CC1 (racemic) | 0.12
CN1CCN(CCCC(=O)OC2CC3(N4CCCCC4)CC(c4ccccc4)C2C(c2ccccc2)C3)CC1 (racemic) | 0.05
C[C@@H]1CC[C@H]2[C@@H](C)C(=O)O[C@@H]3O[C@@]4(C)CC[C@@H]1[C@]32OO4 [ARTEMISININ] | 0.0064

Tested on: not listed separately
Assay: Selectivity index, ratio of IC50 for rat L6 cells to IC50 for chloroquine and pyrimethamine-resistant Plasmodium falciparum K1
Assay type: toxicity, cell-based
Conditions: L6 cells (versus Plasmodium falciparum K1), read-out: Ratio IC50

Compound | selectivity ratio
CCN(CC)CCC(=O)OC1CC2(N(C)C)CC(c3ccccc3)C1C(c1ccccc1)C2 (stereo not drawn) | 54.9
CN1CCN(C23CCNC(C(c4ccccc4)C2)C(c2ccccc2)C3)CC1 (racemic) | 64.6
CN1CCN(CCC(=O)N2CCC3(N4CCN(C)CC4)CC(c4ccccc4)C2C(c2ccccc2)C3)CC1 (racemic) | 82.5
CN1CCN(CCN2CCC3(N(C)C)CC(c4ccccc4)C2C(c2ccccc2)C3)CC1 (racemic) | 135
CN1CCN(CCN2CCC3(N4CCCC4)CC(c4ccccc4)C2C(c2ccccc2)C3)CC1 (racemic) | 2190
CN1CCN(CCN2CCC3(N4CCCCC4)CC(c4ccccc4)C2C(c2ccccc2)C3)CC1 (racemic) | 424
CN1CCN(CCCN2CCC3(N(C)C)CC(c4ccccc4)C2C(c2ccccc2)C3)CC1 (racemic) | 107
CN1CCN(CCCN2CCC3(N4CCCC4)CC(c4ccccc4)C2C(c2ccccc2)C3)CC1 (racemic) | 102
CN1CCN(CCCN2CCC3(N4CCCCC4)CC(c4ccccc4)C2C(c2ccccc2)C3)CC1 (racemic) | 568
CN1CCN(CCCN2CCC3(N4CCN(C)CC4)CC(c4ccccc4)C2C(c2ccccc2)C3)CC1 (racemic) | 191
CN1CCN(CC(=O)NC2CC3(N4CCN(C)CC4)CC(c4ccccc4)C2C(c2ccccc2)C3)CC1 (racemic) | 67.9
CN1CCN(CCC(=O)NC2CC3(N4CCN(C)CC4)CC(c4ccccc4)C2C(c2ccccc2)C3)CC1 (racemic) | 123
CN1CCN(CCC(=O)OC2CC3(N(C)C)CC(c4ccccc4)C2C(c2ccccc2)C3)CC1 (racemic) | 67.7
CN1CCN(CCC(=O)OC2CC3(N4CCCC4)CC(c4ccccc4)C2C(c2ccccc2)C3)CC1 (racemic) | 82
CN1CCN(CCC(=O)OC2CC3(N4CCCCC4)CC(c4ccccc4)C2C(c2ccccc2)C3)CC1 (racemic) | 392
CN1CCN(CCCC(=O)OC2CC3(N(C)C)CC(c4ccccc4)C2C(c2ccccc2)C3)CC1 (racemic) | 82.7
CN1CCN(CCCC(=O)OC2CC3(N4CCCC4)CC(c4ccccc4)C2C(c2ccccc2)C3)CC1 (racemic) | 84.7
CN1CCN(CCCC(=O)OC2CC3(N4CCCCC4)CC(c4ccccc4)C2C(c2ccccc2)C3)CC1 (racemic) | 446

Tested on: Plasmodium berghei
Assay: Antimalarial activity against Plasmodium berghei ANKA infected in albino mouse assessed as inhibition of parasitemia at 30 to 50 mg/kg, ip administered as single dose post-infection measured after 24 hrs by Giemsa staining-based microscopy
Assay type: functional
Conditions: dose mg/kg 30-50; route intraperitoneal

Compound | inhibition (INH) [%]
CN1CCN(CCN2CCC3(N4CCCC4)CC(c4ccccc4)C2C(c2ccccc2)C3)CC1 (racemic) | 39
CN1CCN(CCCN2CCC3(N4CCCC4)CC(c4ccccc4)C2C(c2ccccc2)C3)CC1 (racemic) | 39

Tested on: Plasmodium berghei
Assay: Antimalarial activity against Plasmodium berghei ANKA infected in albino mouse assessed as prolongation of survival time at 30 to 50 mg/kg, ip administered as single dose post infection (reference value: 6.7 days)
Assay type: functional
Conditions: dose mg/kg 30-50; route intraperitoneal

Compound | MST [days]
CN1CCN(CCN2CCC3(N4CCCC4)CC(c4ccccc4)C2C(c2ccccc2)C3)CC1 (racemic) | 8.3
CN1CCN(CCCN2CCC3(N4CCCC4)CC(c4ccccc4)C2C(c2ccccc2)C3)CC1 (racemic) | 7.7

Tested on: Trypanosoma brucei brucei
Assay: […] activity against Trypanosoma brucei brucei STIB 795 infected in NMRI mouse assessed as reduction in parasitemia compound administered on day 3 and day 6 post infection measured after 24 hrs
Assay type: functional, organism-based
Conditions: not given

Compound | Activity
CN1CCN(CCC(=O)OC2CC3(N4CCCCC4)CC(c4ccccc4)C2C(c2ccccc2)C3)CC1 (racemic) | Active

Tested on: Trypanosoma brucei brucei
Assay: […] activity against Trypanosoma brucei brucei STIB 795 infected in NMRI mouse assessed as reduction in parasitemia compound administered on day 3 and day 6 post infection measured on day 10
Assay type: functional, organism-based
Conditions: not given

Compound | Activity
CN1CCN(CCC(=O)OC2CC3(N4CCCCC4)CC(c4ccccc4)C2C(c2ccccc2)C3)CC1 (racemic) | Active
